Laboratory results from patent US12702657B2, “Treatment and prevention of dengue disease” (Janssen Pharmaceuticals, Inc., priority 2019, dated 2026).

Experiments:
DENV-2/Rega lab strain [1] = assay: AG129 mouse viremia model, low viral input (10^2 PFU), viral load kinetics, pre-exposure prophylaxis; assay type: in vivo, AG129 mice; settings: for median serum viral load over all 11 days: LOD=2.59 log10 copies/mL
Experimental: In this experiment, lower viral inputs were used (10^2 PFU), compared with the standard viremia experiments with a high viral input (10^6 PFU). 10^2 PFU was selected as it was the lowest viral load leading to a Dengue infection in the mouse model. Using a lower viral input still results in 100% infection of the mice, but the peak viral load is postponed with 1 to 2 days, which more closely mimics a natural human infection (Clapham et al., 2014 and Sim et al., 2015). The mice were treated during 6 consecutive days.
Animals were infected i.p. with 10^2 PFU DENV-2/Rega lab strain and treated for six consecutive days twice daily with compound (a) by oral gavage (FIG. 5).
The mice were divided in four treatment groups (n=16/group) representing the following treatment regimens: • (i) Vehicle 80%/20% PEG400/H2O, • (ii) compound (a): 10 mg/kg/dose b.i.d. p.o. • (iii) compound (a): 1 mg/kg/dose b.i.d. p.o. • (iv) compound (a): 0.1 mg/kg/dose b.i.d. p.o.
Daily blood samples were collected to follow the viral load over time. Blood collection, for viral RNA load detection, was performed in two alternating sub-groups of mice. Each sub-group comprised half of the mice (n/2=8) from each of the treatment groups (i) to (iv). Blood was collected from a first sub-group at day 1, 3, 5 and 8 p.i. and from a second sub-group at day 2, 4, 6 and 11 p.i. At day 8 p.i., mice of the first sub-group were sacrificed while those of the second sub-group were sacrificed at day 11 p.i. […]
Alternating sub-groups were used to enable daily blood collections. Blood for viral RNA load detection was collected from mice in two alternating sub-groups. Each sub-group comprised half of the mice (n/2=8) from each of the treatment groups (i-vi). Blood was collected from a first sub-group at days 1, 3, 5 and 8 p.i. and from a second sub-group at days 2, 4, 6 and 11 p.i. Blood collection was always performed just before the next administration of the compound. At day 8 p.i., half of the mice in each treatment group (n=8/group) were sacrificed. The remaining mice in each treatment group (n=8/group) were sacrificed at day 11 p.i (FIG. 16 Y).

DENV-2/Rega lab strain [2] = assay: AG129 mouse viremia model, high viral input (10^6 PFU), pre-exposure prophylaxis; assay type: in vivo, AG129 mice; settings: day 3 p.i.; for viral load reduction in serum / median viral load reduction in serum: 10^6 PFU, vs vehicle
Text: The AG129 mouse model is a well-established model to study the antiviral effect of compounds against DENV in vivo (Zompi and Harris, 2012). These 129/Sv mice are deficient for both IFN-α/β and IFN-γ receptors, enabling peripheral viral replication upon intravenous (i.v.) or subcutaneous (s.c.) infection with DENV (Johnson and Roehrig, 1999). […]
Total RNA from serum was extracted using the NucleoSpin RNA virus kit according to the manufacturer's protocol (Macherey-Nagel, Düren, Germany). The viral RNA load was determined by one-step TaqMan RT-qPCR (master mix from Eurogentec, Seraing, Belgium). […]
In a similar setup as for the b.i.d. dosing studies, the in vivo efficacy was studied in the AG129 standard viremia model against DENV-2 with high viral inoculum and with compound (a) q.d. administration. Animals were i.p. infected with 10^6 PFU DENV-2/Rega lab strain in a volume of 200 μL. Animals were treated by administering compound (a) by oral gavage with a first administration at one hour prior to infection. The treatment continued for three consecutive days with one administration of compound (a) every 24 hours (once a day or q.d.). At day 3 post infection (p.i.), the mice were euthanized, and blood was collected (FIG. 3). The viral RNA load was determined as outlined in example 1.
The mice were divided in 5 groups (n=8/group) representing the following treatment regimens: • (i) Vehicle 80%/20% PEG400/H2O, • (ii) reference compound (2′CMC, 50 mg/kg per dose, b.i.d., s.c.), • (iii) compound (a): 0.3 mg/kg/dose q.d. • (iv) compound (a): 3 mg/kg/dose q.d. • (v) compound (a): 30 mg/kg/dose q.d. […]
The mice were divided in several groups (n=8/group for the viremia study and n=10/group for the survival study) representing the following treatment regimens: • (i) vehicle, 80%/20% PEG400/H2O • (ii) compound (b): 30 mg/kg/dose b.i.d. • (iii) compound (b): 10 mg/kg/dose b.i.d. • (iv) compound (b): 3 mg/kg/dose b.i.d. • (v) compound (b): 1 mg/kg/dose b.i.d.

DENV 1/45AZ5 = assay: Antiviral activity against DENV 1/45AZ5 in non-human primates, prophylactic setting; assay type: in vivo, rhesus monkeys (Macaca mulatta); settings: 6 mg/kg q.d. oral, day -3 to day 10, follow-up to day 28 post infection
Experimental: The antiviral activity of compound (a) DENV in a prophylactic setting was assessed in rhesus monkeys (Macaca mulatta) infected with strain DENV 1/45AZ5. Oral dosing of compound (a) (6 mg/kg) was started 3 days before infection with DENV (day −3) and continued with daily dosing until 10 days post infection. On day 0, the animals were intradermally inoculated with 0.5 mL of DENV 1/45AZ5 (1.2×105 plaque-forming units [PFU/mL]). Animals were followed up until day 28 post infection (FIG. 13 X).
The rhesus monkeys were divided in 2 groups representing the following treatment regimens: • (i) Vehicle 100% PEG400 (n=6) • (ii) Group 1: 6 mg/kg/dose, q.d. (n=6),

COc1cc(NC(C(=O)N2CCc3ccc(OC(F)(F)F)cc32)c2ccc(Cl)cc2)cc(OCCCC(=O)O)c1 (stereo not shown) [compound (b)]
reduction of viral RNA levels at peak viremia (DENV-2/Rega lab strain [1]; compound (b) 0.3 mg/kg b.i.d. p.o., 10^2 PFU): 0.8 log10
reduction of viral RNA levels at peak viremia (DENV-2/Rega lab strain [1]; compound (b) 1 mg/kg b.i.d. p.o., 10^2 PFU): 1.8 log10
viral RNA levels in serum (DENV-2/Rega lab strain [1]; compound (b) 3 mg/kg/dose b.i.d. p.o., 6 days, 10^2 PFU): undetectable levels
viral RNA levels in serum (DENV-2/Rega lab strain [1]; compound (b) 10 mg/kg/dose b.i.d. p.o., 6 days, 10^2 PFU): undetectable levels
viral RNA levels in serum (DENV-2/Rega lab strain [1]; compound (b) 30 mg/kg/dose b.i.d. p.o., 6 days, 10^2 PFU): undetectable levels
viral load reduction in serum (DENV-2/Rega lab strain [2]; compound (b) 1 mg/kg per dose b.i.d. p.o.): 0.70 log10 copies/mL
viral load reduction in serum (DENV-2/Rega lab strain [2]; compound (b) 30 mg/kg per dose b.i.d. p.o.): 3.8 log10 copies/mL
viral load reduction compared with the vehicle-treated group, significance (DENV-2/Rega lab strain [2]; compound (b), all four doses (1, 3, 10, 30 mg/kg per dose b.i.d.), p<0.05): significant viral load reduction

COc1cc(NC(C(=O)c2c[nH]c3ccc(OC(F)(F)F)cc23)c2ccc(Cl)cc2OC)cc(S(C)(=O)=O)c1 (stereo not shown) [compound (a)]
delay of peak viral load versus vehicle (DENV-2/Rega lab strain [1]; 0.1 mg/kg/dose b.i.d. p.o., 6 days, 10^2 PFU): ~ 1 day
viral load reduction compared with vehicle (DENV-2/Rega lab strain [1]; 0.1 mg/kg/dose b.i.d. p.o., day 5, 10^2 PFU): 0.50 log10 copies/mL
viral load over time (DENV-2/Rega lab strain [1]; 0.1 mg/kg/dose q.d. p.o., 10^2 PFU): comparable to the vehicle-treated viral load curve
viral load reduction compared to vehicle-treated mice (DENV-2/Rega lab strain [1]; 0.3 mg/kg/dose q.d. p.o., day 5, 10^2 PFU): 1.6 log10 copies/mL
course of viral load after day 5 (DENV-2/Rega lab strain [1]; 0.3 mg/kg/dose q.d. p.o., up to day 11, 10^2 PFU): no further decline in viral load up to day 11
median serum viral load over all 11 days (DENV-2/Rega lab strain [1]; 0.6 mg/kg/dose q.d. p.o., 6 days, 10^2 PFU): undetectable levels
viral load in the mice over all the days (DENV-2/Rega lab strain [1]; 1 mg/kg/dose b.i.d. p.o., 6 days, 10^2 PFU): undetectable levels
median serum viral load over all 11 days (DENV-2/Rega lab strain [1]; 1 mg/kg/dose q.d. p.o., 6 days, 10^2 PFU, 1 viral rebound at day 8): undetectable levels
median viral load at viral rebound (DENV-2/Rega lab strain [1]; 1 mg/kg/dose q.d. p.o., day 8, 10^2 PFU): 3.78 log10 copies/mL
median serum viral load over all 11 days (DENV-2/Rega lab strain [1]; 3 mg/kg/dose q.d. p.o., 6 days, 10^2 PFU): undetectable levels
viral load in the mice over all the days (DENV-2/Rega lab strain [1]; 10 mg/kg/dose b.i.d. p.o., 6 days, 10^2 PFU): undetectable levels
median serum viral load over all 11 days (DENV-2/Rega lab strain [1]; 10 mg/kg/dose q.d. p.o., 6 days, 10^2 PFU): undetectable levels
median serum viral load over all 11 days (DENV-2/Rega lab strain [1]; 30 mg/kg/dose q.d. p.o., 6 days, 10^2 PFU): undetectable levels
DENV RNA during the complete study period (DENV 1/45AZ5): undetectable
viral load reduction in serum (DENV-2/Rega lab strain [2]; 0.1 mg/kg/dose b.i.d. p.o.): 0.47 log10 copies/mL
median viral load reduction in serum (DENV-2/Rega lab strain [2]; 0.3 mg/kg/dose q.d. p.o.): 0.7 log10 copies/mL
median viral load reduction in serum (DENV-2/Rega lab strain [2]; 3 mg/kg/dose q.d. p.o.): 3.1 log10 copies/mL
viral load reduction in serum (DENV-2/Rega lab strain [2]; 30 mg/kg/dose b.i.d. p.o.): 4.4 log10 copies/mL
median viral load reduction in serum (DENV-2/Rega lab strain [2]; 30 mg/kg/dose q.d. p.o.): 4.5 log10 copies/mL
viral load reduction in serum compared with the vehicle-treated group, significance (DENV-2/Rega lab strain [2]; all doses except 0.1 (0.3, 1, 3, 10, 30 mg/kg/dose b.i.d.), p<0.001): significant viral load reduction
